Measured values reported in PubChem BioAssay AID2754 (The Scripps Research Institute Molecular Screening Center, 2010).
Active and inactive are the calls of the source. The rule behind the calls is not given here.

Molecular target: VIM-2 metallo-beta-lactamase (Pseudomonas aeruginosa) (UniProt Q932Y6)
Experiment: inhibition of VIM-2 substrate hydrolysis – biochemical, epi-absorbance, common IMP-1/VIM-2 hits, dose response (AID 2754)
Settings: purified VIM-2 enzyme

| SMILES | IC50 |
| --- | --- |
| O=C(Nc1ccc(C(F)(F)F)cc1)c1ccc(NC(=O)C2CCCO2)cc1 (stereo unspecified) | > 59.6 µM (inactive) |
| O=C(Nc1ccc2oc(-c3ccccc3F)nc2c1)c1ccc([N+](=O)[O-])o1 | > 59.6 µM (inactive) |
| Cc1nn(C)c(C)c1N1C(=O)c2cccc3c(N)ccc(c23)C1=O | 8.99 µM |
| CCCCCCn1c(=O)[nH]c2nc3cc(N)ccc3nc2c1=O | inactive |
| CCCN1C(=O)c2cccc3c(N4CCCCC4)ccc(c23)C1=O | > 59.6 µM (inactive) |
| CN(C)/C=C1\C=C2C(=O)c3ccccc3N2C1=O | 0.894 µM |
| COc1ccc(-c2cc(=O)oc3c(C)c(OCC(=O)NCCCn4ccnc4)ccc23)cc1 | inactive |
| O/C=c1\ccc2cccc3nc(C(F)(F)F)nc1c23 | 8.76 µM |
| CCN(CC)c1ccc2c(-c3ccc(S(=O)(=O)O)cc3S(=O)(=O)[O-])c3ccc(=[N+](CC)CC)cc-3oc2c1 | > 59.6 µM (inactive) |
| CCn1c(=S)sc2c(=O)n(CC(=O)Nc3ccccc3C(F)(F)F)c(C)nc21 | > 59.6 µM (inactive) |
| COc1cc(OC)c(-c2c3cc(O)c(=O)cc-3oc3cc(O)c(O)cc23)cc1OC | 5.11 µM |
| Nc1ccc(-c2c3ccc(=O)cc-3oc3cc(O)ccc23)cc1C(=O)O | 4.47 µM |
| CCOc1ccc(/C=C2\CCCc3c2nc2ccccc2c3C(=O)O)cc1OC | inactive |
| Cn1cc(/C=C(\C(=O)O)C(C(=O)O)=C2CCCCC2)c2ccccc21 | inactive |
| CCN(CC)C1=CC2=CC(=C(C#N)C#N)CCC2CC1 (stereo unspecified) | 2.4 µM |
| O=C1c2ccccc2-c2onc3ccc(NCCCn4ccnc4)c1c23 | 1.72 µM |
| N#CC(C#N)=C1C=C2C=C(N3CCCCC3)CCC2CC1 (stereo unspecified) | 2.33 µM |
| COc1ccccc1-c1csc(-n2ncc(C#N)c2N)n1 | > 59.6 µM (inactive) |
| CCOc1cc2c(cc1/C=C/c1noc(C)c1[N+](=O)[O-])OC(C)C2 (stereo unspecified) | > 59.6 µM (inactive) |
| COc1ccc2c(Cl)c(C(=O)NCCCn3ccnc3)sc2c1Cl | > 59.6 µM (inactive) |
| COc1ccccc1N1N=C(c2ccc([N+](=O)[O-])cc2)CC1c1ccccc1 (stereo unspecified) | > 59.6 µM (inactive) |
| Nc1ccc2c3c(cccc13)C(=O)N(c1ccccc1)C2=O | inactive |
| CCN(CC)c1ccc(/C=C/C(=O)c2ccc(Br)cc2)cc1 | 8.45 µM |
| O=c1ccc2c(-c3ccccc3)c3ccc(O)cc3oc-2c1 | 0.374 µM |

| SMILES | IC50 |
| --- | --- |
| CN1C(=O)c2cccc3c(N)ccc(c23)C1=O | 7.17 µM |
| O=P(O)(O)c1cc(-c2ccccc2)oc1-c1ccccc1 | inactive |
| CNc1ccc2c3c(cccc13)C(=O)N(C)C2=O | 3.06 µM |
| COc1ccc(-c2occ(C(=O)O)c2C(=O)O)cc1 | inactive |
| O=c1cc(C(F)(F)F)c2cc3c4c(c2o1)CCCN4CCC3 | inactive |
| Cc1nn(-c2ccccc2)c(Cl)c1/C=C(\CC(=O)O)c1nc2ccccc2s1 | 9.26 µM |
| CCCCC(Sc1nc(N)c(NC(=O)c2ccco2)c(=O)[nH]1)C(=O)O (stereo unspecified) | > 59.6 µM (inactive) |
| O=C(CCN1C(=O)/C(=C/c2ccc(Cl)cc2)SC1=S)NCCCn1ccnc1 | > 59.6 µM (inactive) |
| CCCCn1c(=O)[nH]c2nc3cc(N)ccc3nc2c1=O | inactive |
| Cc1ccc(Cn2c(C(C)Nc3nc(-c4ccc(C)cc4)cs3)nc3cc(Cl)c(Cl)cc32)cc1 (stereo unspecified) | inactive |
| CCN1/C(=C/C=C/c2oc3ccc4ccccc4c3[n+]2CC)Oc2ccc3ccccc3c21 | > 59.6 µM (inactive) |
| COc1cc(/C=C2/SC(=S)N(Cc3ccccc3)C2=O)cc(OC)c1O | > 59.6 µM (inactive) |
| COc1ccc(/C=C2/SC(c3ccc(C)cc3)=NC2=O)cc1OC | > 59.6 µM (inactive) |
| CCN(CC)c1ccc2cc(-c3nc4ccccc4[nH]3)c(=O)oc2c1 | 2.73 µM |
| CN(/N=C/c1ccc(-c2ccc([N+](=O)[O-])cc2)o1)c1ccccc1 | > 59.6 µM (inactive) |
| CCN(CC)c1ccc2cc(C(=O)NCc3ccc(F)cc3)c(=N)oc2c1 | > 59.6 µM (inactive) |
| COC(=O)c1sccc1NC(=O)c1ccc(C#N)cc1 | > 59.6 µM (inactive) |
| O=C1c2cccc3c(O)ccc(c23)C(=O)N1Cc1ccco1 | inactive |
| CC(C)C(CCN1C(=O)c2ccccc2C1=O)c1ccco1 (stereo unspecified) | inactive |
| CCOC(=O)c1c2c3c(cccc3n(C)c1=O)C(=O)c1ccccc1-2 | inactive |
| Cc1ccc2[nH]cc(/C=C/c3cc[n+](C)cc3)c2c1 | inactive |
| CC(=O)Oc1ccc2c(c1)Oc1cc(OC(C)=O)ccc1C21OC(=O)c2ccccc21 | inactive |
| CC(=O)Nc1ccc(N2C(=O)c3cccc4c(O)ccc(c34)C2=O)cc1 | inactive |
| Nc1cccc(N2C(=O)c3cccc4c(N)ccc(c34)C2=O)c1 | inactive |

| SMILES | IC50 |
| --- | --- |
| COCCCNc1c2c3c(cccc3[nH]c1=O)C(=O)c1ccccc1-2 | 1.84 µM |
| CCOc1ccc(-c2cc(C(=O)NCCCn3ccnc3)c3cc(Br)ccc3n2)cc1 | > 59.6 µM (inactive) |
| O=C1/C(=C\c2cc(Cl)c(O)c(Cl)c2)SC(=S)N1Cc1ccccc1 | inactive |
| N#CC(C#N)=C1C=C2C=C(N3CCOCC3)CCC2CC1 (stereo unspecified) | 2.74 µM |
| Cc1cccc(N2C(=O)c3cccc4c(N)ccc(c34)C2=O)c1 | inactive |
| CC(C)(C)c1ccc(-c2c(C(=O)O)c(C(=O)O)c3n2CSC3)cc1 | inactive |
| CCc1cc(=O)oc2cc(C)c(CN3CCCC3)c(O)c12 | 6.96 µM |
| COCCCn1c(=NC(=O)c2ccccc2)c(C#N)cc2c(=O)n3cccc(C)c3nc21 | > 59.6 µM (inactive) |
| N#CC(C#N)=C1C=C2C=C(N3CCCCCC3)CCC2CC1 (stereo unspecified) | 2.51 µM |
| CC(C)n1cc(/C=C/c2cc[n+](C)cc2)c2ccccc21 | inactive |
| CCN(CC)c1ccc2cc(C=O)c(=O)oc2c1 | inactive |
| CCN1CCN(C2=CC3=CC(=C(C#N)C#N)CCC3CC2)CC1 (stereo unspecified) | 3.7 µM |
| O=C1c2cccc3c(O)ccc(c23)C(=O)N1c1ccc(Cl)cc1 | inactive |
| CN1CCN(C2=CC3=CC(=C(C#N)C#N)CCC3CC2)CC1 (stereo unspecified) | 3 µM |
| CCC(=C/c1sc2ccc3ccccc3c2[n+]1C)/C=C1\Sc2ccc3ccccc3c2N1C | > 59.6 µM (inactive) |
| O=[N+]([O-])c1ccc(N2CCCCCC2)c2nonc12 | inactive |
| N=C1/C(=C\c2coc3ccccc3c2=O)C(=O)N=C2SC=CN12 | inactive |
| CCCCN(C)C1=CC2=CC(=C(C#N)C#N)CCC2CC1 (stereo unspecified) | 4.07 µM |
| CCOC(=O)C1CCCN(c2ccc([N+](=O)[O-])c3nonc23)C1 (stereo unspecified) | inactive |
| COc1ccc(/C=C2\CCCc3c2nc2ccccc2c3C(=O)O)cc1OC | inactive |
| Cc1n[nH]c(C)c1N1C(=O)c2cccc3c(N4CCCCCC4)ccc(c23)C1=O | inactive |
| O=C1CCN2C=Nc3cccc4ccc1c2c34 | 9.22 µM |
| CN1C(=O)/C(=C\c2ccc(N(C)C)cc2)OC1=S | > 59.6 µM (inactive) |
